Assay results published in patent publication US7572949B2, “SKN-1 and GSK-3 genes and proteins” (Immune Disease Institute, Inc., priority 2003, dated 2009).

How the values were obtained:
[1] = system: GCS-1::GFP expression in the intestine; assay: Induction of GCS-1::GFP expression in the intestine by oxidative stress (transgenic worms, fluorescence microscopy); format: in vivo, C. elegans; settings: for percentage of animals with high intestinal GCS-1::GFP expression / percentage of animals with low intestinal GCS-1::GFP expression / percentage of animals with medium intestinal GCS-1::GFP expression: 1 mM paraquat in the agar, 20° C., 3 days, mixed L2-young adult worms
Description: Transgenic strains were generated by injecting DNA into the gonad of young adult animals as described in Mello et al. (EMBO Journal 10: 3959-3970 (1991)). gcs-1::gfp transgene constructs (FIG. 3A) were injected at 50 ng/μl along with the rol-6 marker (pRF4) at 100 ng/μl. Between three and six independent extrachromosomal lines were generated and analyzed for each gcs-1::gfp construct. To investigate GCS-1::GFP expression in the skn-1(zu67) background, rol-6-marked gcs-1::gfp hermaphrodites were mated with N2 males, then their transgenic progeny were crossed with skn-1(zu67)/DnT1 hermaphrodites, which have an unc phenotype. After transgenic males were successively crossed twice with skn-1(zu67)/DnT1 hermaphrodites, unc; rol F3 hermaphrodite progeny were selected. From this population, skn-1(zu67)/DnT1; gcs-1::gfp animals were identified on the basis of their non-unc; rol progeny laying dead eggs. Two different gcs-1:gfp lines were thereby crossed into the skn-1(zu67) background and examined for GFP expression. DIC and fluorescence images were acquired with a Zeiss AxioSKOP2 microscope and AxioCam cooled color digital camera.
To investigate expression of gcs-1::gfp and mutant transgenes, worms were exposed to oxidative stress under the following conditions. For heat shock, worms cultured at 20° C. were transferred onto prewarmed seeded plates and incubated at 29° C. for 20 hours, then examined by fluorescence microscopy for GFP expression. gcs-1::gfp induction was also observed in an alternative heat treatment protocol, during which worms cultured at 20° C. were transferred onto prewarmed plates and incubated at 34° C. for 2 to 4 hours, then returned to 20° C. and examined for GFP expression hourly during a four hour recovery period. In the experiments described in Table 2, young adults were transferred to plates that contained 1 mM paraquat in the agar and maintained at 20° C. for 3 days prior to analysis. In an alternative induction protocol, worms that carried gcs-1::gfp or the mutant transgenes shown in FIG. 3A were incubated in M9 either with or without 100 mM paraquat for 30 minutes, then allowed to recover on plates for four hours.

SKN-1::GFP = assay: Accumulation of SKN-1::GFP in intestinal nuclei in response to oxidative stress (skn-1::gfp transgenic worms); format: in vivo, C. elegans
Description: To create transgenic skn-1::gfp strains, 2.5, 10, or 50 ng/μl of transgene DNA (FIG. 5A) was injected into N2 animals at along with 100 ng/μl of pRF4 to generate extrachromosomal transgenic lines. Two different extrachromosomal arrays, Ex001 and Ex007, generated with 2.5 and 10 ng/μl of SKN-1::GFP, respectively, were integrated into the chromosome by UV irradiation (400 J/m2) to produce the insertion strains Is001 and Is007, respectively. To rescue the embryonic lethality of a skn-1 mutation, SKN-1::GFP was injected into skn-1(zu67)/DnT1 animals at 2.5 ng/μl with 100 ng/μl of the pRF4 marker. […] To analyze expression and localization of SKN-1::GFP in response to oxidative stress, skn-1::gfp transgenic worms were treated as described above for the gcs-1::gfp expression studies. […] These worms were scored for presence of SKN-1::GFP in intestinal nuclei 5 minutes later. […] To discriminate intestinal autofluorescence from SKN-1::GPP epifluorescence, a triple band emission filter set (Chroma 61000) was used in conjunction with a narrow band excitation filter (484/14 nm). This combination allowed autofluorescence to be detected as yellow/orange fluorescence deriving from a combined green and red signal, while GFP remained green. Worms that carried skn-1::gfp, gcs-1::gfp and gcs-1::gfp mutant transgenes were incubated with 50 μg/ml DiI (Molecular Probes) in M9 for 3 hours at 20° C., then transferred to fresh plates for 1 hour to destain, and examined under the fluorescence microscope. The ASI chemosensory neurons were identified by according to their intensity of DiI labeling and location relative to other DiI-labeled cells.

[2] = system: C. elegans pathway mediated by SKN-1; settings: in vivo
[3] = 2 mM, immobilization for photography, during the times examined (data not shown)
[4] = paraquat, treated as for the gcs-1::gfp studies, mixed-stage L2-young adult worms

## c1ccc([C@H]2CN3CCSC3=N2)cc1 [Levamisole]
[1]; [3]
  GCS-1::GFP induction by immobilization agent: did not stimulate
SKN-1::GFP; [3]
  SKN-1::GFP relocalization by immobilization agent: did not stimulate

## C[n+]1ccc(-c2cc[n+](C)cc2)cc1 [Paraquat, paraquat (methyl viologen)]
[1]; 100 mM paraquat in M9 for 30 minutes, four hours recovery on plates
  intestinal gcs-1::gfp expression, alternative induction protocol: induction of intestinal gcs-1::gfp expression
[1]; gcs-1::gfp transgene
  percentage of animals with high intestinal GCS-1::GFP expression: 18.4%
  percentage of animals with low intestinal GCS-1::GFP expression: 14.5%
  percentage of animals with medium intestinal GCS-1::GFP expression: 67.1%
[1]; gcsΔ2::gfp transgene
  percentage of animals with high intestinal GCS-1::GFP expression: 13.1%
  percentage of animals with low intestinal GCS-1::GFP expression: 21.3%
  percentage of animals with medium intestinal GCS-1::GFP expression: 65.6%
[1]; skn-1 homozygotes, after paraquat treatment (data not shown)
  GCS-1::GFP in the intestine and ASI neurons of skn-1 homozygotes: absence of GCS-1::GFP
SKN-1::GFP; ASI neurons, after exposure to paraquat
  SKN-1::GFP in the ASI neurons after exposure: neither the location nor intensity of SKN-1::GFP was detectably altered
SKN-1::GFP; in a high percentage of animals, particularly anteriorly and posteriorly, after exposure to paraquat
  SKN-1::GFP in intestinal cell nuclei after exposure: elevated levels of SKN-1::GFP
SKN-1::GFP; [4]
  percentage of animals with high SKN-1::GFP in intestinal nuclei: 3.1%
  percentage of animals with low SKN-1::GFP in intestinal nuclei: 53.1%
  percentage of animals with medium SKN-1::GFP in intestinal nuclei: 43.8%

## [N-]=[N+]=[N-] [Sodium Azide, sodium azide]
SKN-1::GFP; in vivo
  percentage of animals with high SKN-1::GFP in intestinal nuclei: 55.0%
  percentage of animals with low SKN-1::GFP in intestinal nuclei: 0.8%
  percentage of animals with medium SKN-1::GFP in intestinal nuclei: 44.2%

## C[S+]([O-])CCCCN=C=S (stereo not shown) [sulforaphane]
[2]
  response of the SKN-1-mediated pathway: responds
